Reference: PubChem BioAssay (NCI)
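Growth conditions: 96-well plates. Treatment: test compound, 48 hours, 5 concentrations. Analysis: linear interpolation between bracketing concentrations; unreached endpoints set to highest concentration. GI50 is the concentration that inhibits growth by half. Definition used: TGI = concentration required for complete inhibition of growth.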

How the values were obtained:
Experiment in all cases: NCI tumour cell line growth inhibition, 48 h
[1] = system: NCI-H460 lung
[2] = system: HL-60(TB) leukemia
[3] = system: TK-10 renal
[4] = system: HOP-18 NSCLC
[5] = system: KM20L2 colon
[6] = system: XF 498 CNS
[7] = system: SNB-78 CNS
[8] = system: DMS 114 small cell lung
[9] = system: DLD-1 colon
[10] = system: DMS 273 small cell lung
[11] = system: LXFL 529 NSCLC

Q: What does the source list for `CC1=C(c2ccc(C)cc2)NC(=S)C(C)C(c2ccc(C)cc2)=N1` (centres undefined)?
A: TGI [1]: > 100 µM; TGI [2]: > 100 µM; TGI [3]: > 100 µM

Q: What does the source list for `CCCCCCCSCC1OC(n2cnc3c(N)ncnc32)C(O)C1O` (centres undefined)?
A: TGI [4]: 68.2 µM; TGI [5]: > 100 µM; TGI [6]: 97.6 µM; TGI [1]: 42.1 µM; TGI [7]: > 100 µM; TGI [2]: 27.3 µM; TGI [8]: 71.1 µM; TGI [9]: 28.7 µM; TGI [3]: > 100 µM; TGI [10]: 54.2 µM; TGI [11]: 29.8 µM

Q: With `CC(=O)[C@]1(C)[C@H](C)O[C@](C)(CO)[C@H]1O[Si](C)(C)c1ccccc1` as the molecule, how does the TGI [1] read?
A: Its TGI is greater than 100 µM.

Q: What about the TGI [2] of the same molecule?
A: Its TGI is 72.4 µM.

Q: What about the TGI [3] of the same molecule?
A: The TGI was greater than 100 µM.

Q: Which TGI [1] does the source give for `NN/C(=N\S(=O)(=O)c1cccc2nsnc12)Nc1ccc(Cl)cc1` here?
A: The TGI was greater than 100 µM.

Q: What about the TGI [2] of the same molecule?
A: The TGI was greater than 100 µM.

Q: And the TGI [3]?
A: The TGI was greater than 100 µM.

Q: `CN(C)C(=O)C(F)(F)C(c1ccc(C(F)(F)F)cc1)C1C(=O)N(C)C(=O)N(C)C1=O` (centres undefined) was tested. Which TGI [1] did it give?
A: Its TGI is greater than 100 µM.

Q: What about the TGI [3] of the same molecule?
A: The TGI was greater than 100 µM.

Q: How did the TGI [1] turn out when `O=c1[nH]cnc2c1ncn2C1SC(CO)C(O)C1O` (centres undefined) was run?
A: The TGI was greater than 100 µM.

Q: And the TGI [2]?
A: Its TGI is greater than 100 µM.

Q: What about the TGI [3] of the same molecule?
A: Its TGI is greater than 100 µM.

Q: `Cc1ccc(C(=O)c2[nH]c(Nc3ccc(Cl)cc3)c(C(=S)Nc3ccccc3)c2N)cc1` was tested. Which TGI [1] did it give?
A: The TGI was 15.4 µM.

Q: What about the TGI [2] of the same molecule?
A: The TGI was greater than 100 µM.

Q: And the TGI [3]?
A: The TGI was 16.8 µM.

Q: Which TGI [1] does the source give for `CCOC(=O)NC(C(C(=O)OCC)C(=O)OCC)(C(F)(F)F)C(F)(F)F` here?
A: The TGI was greater than 100 µM.

Q: What about the TGI [2] of the same molecule?
A: The TGI was greater than 100 µM.

Q: What about the TGI [3] of the same molecule?
A: The TGI was greater than 100 µM.

Q: Which results are given for `COCN1C(=O)[C@@H]2CCCN2C(=O)c2cc(Cl)ccc21`?
A: TGI [1]: > 100 µM; TGI [3]: > 100 µM

Q: What does the source list for `Cc1ccc(-c2n[nH]c(=O)n2N2C(=O)C=CC2=O)cc1`?
A: TGI [1]: > 100 µM; TGI [2]: > 100 µM; TGI [3]: > 100 µM

Q: Which TGI [1] does the source give for `C=CCN(c1cc(OCc2ccccc2)c2c(c1)c(C)cn2S(=O)(=O)c1ccccc1)S(C)(=O)=O` here?
A: The TGI was greater than 100 µM.

Q: What about the TGI [2] of the same molecule?
A: The TGI was greater than 100 µM.

Q: What about the TGI [3] of the same molecule?
A: Its TGI is greater than 100 µM.

Q: How did the TGI [1] turn out when `CN1CC(S(=O)(=O)c2ccccc2)CC(S(=O)(=O)c2ccccc2)C1c1ccccc1` (centres undefined) was run?
A: The TGI was 49.4 µM.

Q: What about the TGI [2] of the same molecule?
A: The TGI was 32.2 µM.

Q: What about the TGI [3] of the same molecule?
A: The TGI was 28 µM.

Q: Which TGI [4] does the source give for `COC(=O)C1CCC[C@H]2C(CO)=C(C)C(=O)[C@@H]12` (some centres undefined) here?
A: Its TGI is greater than 100 µM.

Q: And the TGI [5]?
A: Its TGI is greater than 100 µM.

Q: What about the TGI [6] of the same molecule?
A: The TGI was greater than 100 µM.

Q: And the TGI [1]?
A: Its TGI is greater than 100 µM.

Q: What about the TGI [7] of the same molecule?
A: The TGI was greater than 100 µM.

Q: And the TGI [2]?
A: Its TGI is greater than 100 µM.

Q: What about the TGI [8] of the same molecule?
A: Its TGI is greater than 100 µM.

Q: What about the TGI [9] of the same molecule?
A: The TGI was greater than 100 µM.

Q: What about the TGI [3] of the same molecule?
A: The TGI was greater than 100 µM.

Q: And the TGI [10]?
A: The TGI was greater than 100 µM.

Q: And the TGI [11]?
A: Its TGI is greater than 100 µM.

Q: What does the source list for `CCCC(=O)[O-].CCCC(=O)[O-].N.N.N.N.[Co+3].[O-][Cl+3]([O-])([O-])[O-]`?
A: GI50 [5]: > 100 µM; TGI [5]: > 100 µM; TGI [1]: > 100 µM; GI50 [7]: > 100 µM; TGI [7]: > 100 µM; TGI [2]: > 100 µM; GI50 [9]: > 100 µM; TGI [9]: > 100 µM; TGI [3]: > 100 µM; GI50 [11]: > 100 µM; TGI [11]: > 100 µM
